Positions of bridges follow the written chain, without caps; N, C: chain ends. Residues, ends and D or L forms follow the SMILES beside them.
Tested on: not listed separately
Assay: in vitro
Format: in vitro ADME
Conditions: human, plasma, Exp. PPB (fb*)
Procedure: (§1) As the number of publicly available data of cyclic peptide drugs is small compared to that of small molecule, we additionally designed and experimented with 16 cyclic peptides composed exclusively of natural amino acids. First, linear peptides were synthesized. Then, circularization was achieved by making a disulfide bond between N-terminal and C-terminal cysteine residues and confirmed by TOF/MS and HPLC analyses. Human PPB values fb were determined by the equilibrium dialysis method. Frozen human plasma was thawed immediately at room temperature. Then, the plasma was centrifuged at 3220 g for 10 min to remove clots and the supernatant was collected into a fresh tube. The working solutions of test compounds were prepared in DMSO at a concentration of 200 μM. Then, 3 μL of the working solution was removed for mixing with 597 μL of human plasma to achieve a final concentration of 1 μM (0.5% DMSO). The plasma samples were vortexed thoroughly. The dialysis membranes (HTD 96a/b Dialysis Membrane Strips MWCO 12-14 K, Cat. #1101, Batch# 1141 (12–17)) were soaked in ultrapure water for 60 min to separate the strips, then in 20% ethanol for 20 min, and finally in the dialysis buffer (100 mM sodium phosphate and 150 mM NaCl) for 20 min. The dialysis apparatus was assembled according to the manufacturer’s instructions. Each cell was filled with the spiked plasma sample and dialyzed against equal volume of the dialysis buffer. The assay was performed in duplicate. The dialysis plate was sealed and incubated in an incubator at 37 °C with 5% CO2 at 100 rpm for 6 h. At the end of incubation, the seal was removed and 50 μL of samples from both buffer and plasma chambers were transferred to wells of a 96-well plate. 50 μL of blank plasma was added to each buffer sample and an equal volume of phosphate buffered saline was supplemented to the collected plasma sample. […] Samples in the plate were vortexed for 5 min and centrifuged at 3220 g for 30 min at 4 °C. Then, the supernatant was transferred to a new 96-well plate with 100 μL or 200 μL water (depending on the LC-MS signal response and peak shape) for LC-MS/MS analysis.

| Compound | fraction unbound at 6 h, 1 μM |
| --- | --- |
| CC(C)[C@@H]1NC(=O)[C@H](C)NC(=O)[C@H](CO)NC(=O)[C@H](Cc2ccc(O)cc2)NC(=O)[C@H](C(C)C)NC(=O)[C@H](Cc2ccccc2)NC(=O)[C@@H](N)CSSC[C@@H](C(=O)O)NC1=O [Pep.15] (H-CFVYSAVC-OH; disulfide 1-8; N-terminus and C-terminus assumed) | 0.847 |
| CC(C)C[C@@H]1NC(=O)CNC(=O)[C@H](C)NC(=O)[C@@H](N)CSSC[C@@H](C(=O)O)NC(=O)[C@H](C)NC(=O)[C@H](C)NC(=O)[C@H](CC(C)C)NC(=O)[C@H](C(C)C)NC1=O [Pep.9] (H-CAGLVLAAC-OH; disulfide 1-9; N-terminus and C-terminus assumed) | 1 |
| NC(=O)CC[C@@H]1NC(=O)[C@H](Cc2c[nH]c3ccccc23)NC(=O)[C@@H]2CCCN2C(=O)[C@H](CCC(N)=O)NC(=O)[C@H](CC(N)=O)NC(=O)[C@@H](N)CSSC[C@@H](C(=O)O)NC1=O [Pep.11] (H-CNQPWQC-OH; disulfide 1-7; N-terminus and C-terminus assumed) | 1 |
| CC(C)C[C@@H]1NC(=O)[C@H](Cc2c[nH]c3ccccc23)NC(=O)[C@H](CC(=O)O)NC(=O)[C@H](CC(=O)O)NC(=O)[C@H](Cc2ccccc2)NC(=O)[C@H](CO)NC(=O)[C@@H](N)CSSC[C@@H](C(=O)O)NC(=O)[C@H](C)NC1=O [Pep.12] (H-CSFDDWLAC-OH; disulfide 1-9; N-terminus and C-terminus assumed) | 0.2 |
| CC(C)C[C@@H]1NC(=O)[C@H](CC(C)C)NC(=O)[C@H](CCCCN)NC(=O)[C@@H](N)CSSC[C@@H](C(=O)O)NC(=O)[C@H]([C@@H](C)O)NC(=O)[C@H](CCCCN)NC(=O)[C@H](CCCCN)NC1=O [Pep.7] (H-CKLLKKTC-OH; disulfide 1-8; N-terminus and C-terminus assumed) | 1 |
| N=C(N)NCCC[C@@H]1NC(=O)[C@@H]2CCCN2C(=O)[C@H](CC(N)=O)NC(=O)[C@H](CCC(N)=O)NC(=O)[C@H](Cc2ccccc2)NC(=O)[C@H](Cc2ccc(O)cc2)NC(=O)[C@@H](N)CSSC[C@@H](C(=O)O)NC(=O)CNC1=O [Pep.1] (H-CYFQNPRGC-OH; disulfide 1-9) | 0.76 |
| CC(C)[C@@H]1NC(=O)[C@H](CCCNC(=N)N)NC(=O)[C@@H]2CCCN2C(=O)[C@H](CCCNC(=N)N)NC(=O)[C@H](Cc2c[nH]c3ccccc23)NC(=O)[C@@H](N)CSSC[C@@H](C(=O)O)NC(=O)[C@H](CCCNC(=N)N)NC(=O)[C@H](C)NC1=O [Pep.5] (H-CWRPRVARC-OH; disulfide 1-9; N-terminus and C-terminus assumed) | 1 |
| NCCCC[C@@H]1NC(=O)[C@H](Cc2c[nH]c3ccccc23)NC(=O)[C@H](Cc2ccccc2)NC(=O)[C@@H]2CCCN2C(=O)[C@H](Cc2ccccc2)NC(=O)[C@@H](N)CSSC[C@@H](C(=O)O)NC(=O)[C@H](Cc2ccc(O)cc2)NC1=O [Pep.4] (H-CFPFWKYC-OH; disulfide 1-8; N-terminus and C-terminus assumed) | 0.384 |
| CC(C)[C@@H]1NC(=O)[C@H](Cc2c[nH]c3ccccc23)NC(=O)[C@@H](N)CSSC[C@@H](C(=O)O)NC(=O)[C@H](CCC(=O)O)NC(=O)[C@H](Cc2ccccc2)NC(=O)[C@H](CCC(N)=O)NC(=O)[C@@H]2CCCN2C(=O)[C@H](Cc2c[nH]cn2)NC1=O [Pep.10] (H-CWVHPQFEC-OH; disulfide 1-9; N-terminus and C-terminus assumed) | 0.633 |
| C[C@@H](O)[C@@H]1NC(=O)[C@H](CCCCN)NC(=O)[C@H](Cc2c[nH]c3ccccc23)NC(=O)[C@H](Cc2ccccc2)NC(=O)[C@H](Cc2ccccc2)NC(=O)[C@@H](N)CSSC[C@@H](C(=O)O)NC(=O)[C@H]([C@@H](C)O)NC1=O [Pep.6] (H-CFFWKTTC-OH; disulfide 1-8; N-terminus and C-terminus assumed) | 0.737 |

Results, then the compound that gave them:

| fraction unbound at 6 h, 1 μM | Compound |
| --- | --- |
| 0.145 | N[C@H]1CSSC[C@@H](C(=O)O)NC(=O)[C@H](Cc2ccc(O)cc2)NC(=O)[C@H](Cc2ccc(O)cc2)NC(=O)[C@H](Cc2ccc(O)cc2)NC(=O)[C@H](Cc2ccc(O)cc2)NC(=O)[C@H](Cc2ccc(O)cc2)NC(=O)[C@H](Cc2ccc(O)cc2)NC(=O)[C@H](Cc2ccc(O)cc2)NC1=O [Pep.8] (H-CYYYYYYYC-OH; disulfide 1-9; N-terminus and C-terminus assumed) |
| 0.849 | CC[C@H](C)[C@@H]1NC(=O)[C@H](CCCNC(=N)N)NC(=O)[C@@H](N)CSSC[C@@H](C(=O)O)NC(=O)[C@H](Cc2ccc(O)cc2)NC(=O)[C@H](CCCNC(=N)N)NC(=O)[C@H](CCCCN)NC1=O [Pep.16] (H-CRIKRYC-OH; disulfide 1-7; N-terminus and C-terminus assumed) |
| 0.926 | C[C@@H]1NC(=O)[C@H](Cc2c[nH]c3ccccc23)NC(=O)[C@H](C)NC(=O)[C@@H]2CCCN2C(=O)[C@H](C)NC(=O)[C@@H](N)CSSC[C@@H](C(=O)O)NC(=O)CNC(=O)[C@H](Cc2c[nH]cn2)NC1=O [Pep.14] (H-CAPAWAHGC-OH; disulfide 1-9; N-terminus and C-terminus assumed) |
| 1 | CC(C)[C@@H]1NC(=O)[C@H](CCCCN)NC(=O)[C@H](Cc2c[nH]c3ccccc23)NC(=O)[C@H](C)NC(=O)[C@@H](N)CSSC[C@@H](C(=O)O)NC(=O)[C@H]([C@@H](C)O)NC1=O [Pep.3] (H-CAWKVTC-OH; disulfide 1-7; N-terminus and C-terminus assumed) |
| 0.995 | CC[C@H](C)[C@@H]1NC(=O)[C@H](Cc2ccc(O)cc2)NC(=O)[C@@H](N)CSSC[C@@H](C(=O)O)NC(=O)CNC(=O)[C@H](CC(C)C)NC(=O)[C@@H]2CCCN2C(=O)[C@H](CC(N)=O)NC(=O)[C@H](CCC(N)=O)NC1=O [Pep.2] (H-CYIQNPLGC-OH; disulfide 1-9; N-terminus and C-terminus assumed) |
| 0.651 | CC(C)C[C@@H]1NC(=O)[C@H](Cc2ccc(O)cc2)NC(=O)[C@@H](N)CSSC[C@@H](C(=O)O)NC(=O)CNC(=O)[C@H](Cc2c[nH]cn2)NC(=O)[C@H](Cc2ccc(O)cc2)NC(=O)[C@H](CCC(=O)O)NC(=O)[C@H](C)NC1=O [Pep.13] (H-CYLAEYHGC-OH; disulfide 1-9; N-terminus and C-terminus assumed) |

Tested on: human plasma
Assay: in vitro
Format: in vitro ADME
Conditions: 6 h, 1 μM
Procedure: as §1

| Compound | Exp. PPB (fb*) |
| --- | --- |
| N=C(N)NCCC[C@@H]1NC(=O)[C@@H]2CCCN2C(=O)[C@H](CC(N)=O)NC(=O)[C@H](CCC(N)=O)NC(=O)[C@H](Cc2ccccc2)NC(=O)[C@H](Cc2ccc(O)cc2)NC(=O)[C@@H](N)CSSC[C@@H](C(=O)O)NC(=O)CNC1=O [Pep.1] (H-CYFQNPRGC-OH; disulfide 1-9) | 0.242 |

Tested on: plasma protein
Assay: not given
Conditions: plasma; cited from earlier work

| Compound | PPB (fb) |
| --- | --- |
| Quinupristin [reference compound] | 0.66 |
| Micafungin [reference compound] | 1 |

Tested on: plasma protein
Assay: not given
Conditions: cited from earlier work

| Compound | PPB (fb) |
| --- | --- |
| Quinupristin [reference compound] | 0.55-0.78 |

Same assay, conditions: fraction bound (0-1); public cyclic peptide drug dataset; ref DrugBank [39]; cited from earlier work

| Compound | PPB (fb) |
| --- | --- |
| Micafungin [reference compound] | 0.99 |
